Measurements from ChEMBL document CHEMBL1150981, “Synthesis of new maleimide derivatives of daunorubicin and biological activity of acid labile transferrin conjugates” (Bioorg Med Chem Lett, 1997).
Calls of active or inactive are those of the source. The calls are words filed in the database; no cut-off is given here.

How the values were obtained:
[1] = test system: MEXF989; test: Tested for its inhibitory activity against human melanoma cells (MEFX 989) using a clonogenic assay at 0.01-1.0 uM; format: functional; details: MEXF 989
[2] = test system: LXFL 529/11; test: Tested for its inhibitory activity against xenograft (LXFL 529/11, lung, large cell) using a clonogenic assay; format: functional, Homo sapiens
[3] = Tested for the half life period at pH 5.0; format: ADME
[4] = test system: MEXF989; test: Tested for its inhibitory activity against human melanoma cells ([…]) using a clonogenic assay at 0.01-1.0 uM; […]; format: functional, cell-based
[5] = test system: LXFL 529/11; test: Tested for its inhibitory activity against xenograft (LXFL 529/11, lung, large cell) using a clonogenic assay at 0.01-1.0 uM; No activity; format: functional, cell-based; details: Homo sapiens

Row | IC90 [2] | half-life [3] | Structure (SMILES) | IC70 [1] | Activity [4] | Activity [5]
1 | 30 nM |  | COc1cccc2c1C(=O)c1c(O)c3c(c(O)c1C2=O)C[C@@](O)(C(C)=O)C[C@@H]3O[C@H]1C[C@H](N)[C@H](O)[C@H](C)O1 [DAUNORUBICIN] | 260 nM |  | 
2 | <10 nM | 30 h | COc1cccc2c1C(=O)c1c(O)c3c(c(O)c1C2=O)C[C@@](O)(/C(C)=N/NC(=O)c1ccc(CN2C(=O)C=CC2=O)cc1)C[C@@H]3OC1CC(N)C(O)C(C)O1 (stereo not given in full) | 22 nM |  | 
3 | <10 nM | 20 h | COc1cccc2c1C(=O)c1c(O)c3c(c(O)c1C2=O)C[C@@](O)(/C(C)=N/NC(=O)c1cccc(N2C(=O)C=CC2=O)c1)C[C@@H]3OC1CC(N)C(O)C(C)O1 (stereo not given in full) | 390 nM |  | 
4 |  |  | COc1cccc2c1C(=O)c1c(O)c3c(c(O)c1C2=O)C[C@@](O)(C(C)=O)C[C@@H]3OC1CC(NC(=O)c2cccc(N3C(=O)C=CC3=O)c2)C(O)C(C)O1 (stereo not given in full) |  | inactive | inactive
